Data: patent US4129737A, “Process for the preparation of an 8-alkyl-5-oxo-5,8-dihydro-pyrido(2,3-d)pyrimidine-6-carboxylic acid” (priority 1972, dated 1978)
Converted amounts (≈) assume the structure as drawn. Read-outs that look alike come from different tables or passages of the source.

Legend:
[1] = system: Staphylococcus 209 P; experiment: Minimum inhibitory concentration by agar dilution, Staphylococcus 209 P; format: cell-based; details: Staphylococcus, 37° C., 18 hours, read-out: minimum inhibitory concentration (M.I.C.)
Experimental: (§1) (a) Trypticase soya medium (T.S.A.), which is very suitable for culturing the majority of microorganisms; it has the following composition:
(§2) (b) Ordinarily nutrient agar (N.A.), which is less rich in nutrients, corresponds to the following formulation: […]
(§3) Table I gives the minimum inhibitory concentrations (expressed in μg/cm^3) for the various microorganisms tested on each medium.
(§4) The products were tested on three Gram positive microorganisms (1 to 3) […] and on 10 Gram negative microorganisms (4 to 13).
(§5) Table (II) gives the minimum inhibitory concentrations of the compounds of Examples XII to XVI, determined on the agar medium, N.A., and expressed in μg/cm^3.

[2] = system: Streptococcus; experiment: Minimum inhibitory concentration by agar dilution, Streptococcus Group A; format: cell-based; details: 37° C., 18 hours, read-out: minimum inhibitory concentration (M.I.C.)
Experimental: as §1, §2, §3, §4, §5

[3] = system: B. subtilis; experiment: Minimum inhibitory concentration by agar dilution, B. subtilis; format: cell-based; details: Bacillus subtilis, 37° C., 18 hours, read-out: minimum inhibitory concentration (M.I.C.)
Experimental: as §1, §2, §3, §4, §5

[4] = system: B. pyocyaneus A22; experiment: Minimum inhibitory concentration by agar dilution, B. pyocyaneus A22; format: cell-based; details: Pseudomonas aeruginosa, A22, 37° C., 18 hours, read-out: minimum inhibitory concentration (M.I.C.)
Experimental: as §1, §2, §3, §4, §5

[5] = system: B. pyocyaneus TUR; experiment: Minimum inhibitory concentration by agar dilution, B. pyocyaneus TUR; format: cell-based; details: Pseudomonas aeruginosa, 37° C., 18 hours
Experimental: as §1, §2, §3, §4

[6] = system: Esch. Coli 95; experiment: Minimum inhibitory concentration by agar dilution, Esch. Coli 95; format: cell-based; details: Escherichia coli, 37° C., 18 hours, read-out: minimum inhibitory concentration (M.I.C.)
Experimental: as §1, §2, §3, §4, §5

[7] = system: Salm. typhi; experiment: Minimum inhibitory concentration by agar dilution, Salm. typhi; format: cell-based; details: Salmonella enterica, 18 h
Experimental: as §1, §2, §3, §4, §5

[8] = system: Pr. mirabilis; experiment: Minimum inhibitory concentration by agar dilution, Pr. mirabilis; format: cell-based; details: Proteus mirabilis, 37° C., 18 hours, read-out: minimum inhibitory concentration (M.I.C.)
Experimental: as §1, §2, §3, §4, §5

[9] = system: Pr. morganii; experiment: Minimum inhibitory concentration by agar dilution, Pr. morganii; format: cell-based; details: Morganella morganii, 37° C., 18 hours, read-out: minimum inhibitory concentration (M.I.C.)
Experimental: as §1, §2, §3, §4, §5

[10] = system: Esch 111 B4; experiment: Average MIC, solid medium (nutrient agar) dilution method; format: cell-based; details: 18 h, average of five determinations, read-out: minimum inhibitory concentration, average
[11] = system: Salm. typhi 0901; experiment: as above; format: cell-based; details: Salmonella enterica, 18 h, read-out: minimum inhibitory concentration, average
[12] = system: Sh. sonnei I.P.S.; experiment: as above; format: cell-based; details: Shigella sonnei, 18 h, average of five determinations, read-out: minimum inhibitory concentration, average
[13] = system: Gram-negative microorganisms; experiment: In vitro anti-microbial activity on agar media, overall; format: cell-based
Experimental: as §4

[14] = system: mice; experiment: Oral toxicity in mice; format: in vivo; details: doses as high as 4 g per kilogram
[15] = system: dog; details: in vivo, 100 mg/kg/day
[16] = Toxicity, overall statement; details: in vivo
[17] = system: Staphylococcus 209P; experiment: Average MIC, solid medium (nutrient agar) dilution method; details: 18 h, read-out: minimum inhibitory concentration, average
[18] = system: Staphylococcus 9144; experiment: as above; details: Staphylococcus, 9144, 18 h, read-out: minimum inhibitory concentration, average
[19] = system: Staphylococcus SIM; experiment: as above; details: 18 h, read-out: minimum inhibitory concentration, average
[20] = system: Streptococcus A561; experiment: as above; details: A561, 18 h, read-out: minimum inhibitory concentration, average
[21] = system: Streptococcus DM19; experiment: as above; details: DM19, 18 h, read-out: minimum inhibitory concentration, average
[22] = system: B. subtilis 6633; experiment: as above; details: Bacillus subtilis, 6633, 18 h, read-out: minimum inhibitory concentration, average
[23] = system: Ps. aeruginosa 72-345; experiment: as above; details: Pseudomonas aeruginosa, 72345, 18 h, read-out: minimum inhibitory concentration, average
[24] = system: Esch. coli. LRB 45; experiment: as above; details: Escherichia coli, 18 h, read-out: minimum inhibitory concentration, average
[25] = system: Esch. coli. LRB 67; experiment: as above; details: Escherichia coli, 18 h, read-out: minimum inhibitory concentration, average
[26] = system: S. oranienburg 10-66; experiment: as above; details: Salmonella enterica, 1066, 18 h, read-out: minimum inhibitory concentration, average
[27] = system: Providencia 0223; experiment: as above; details: Providencia, 0223, 18 h, read-out: minimum inhibitory concentration, average
[28] = system: Pr. mirabilis Nig; experiment: as above; details: Proteus mirabilis, 18 h, read-out: minimum inhibitory concentration, average
[29] = N.A. (nutrient agar, pH 6.8), Table I
[30] = T.S.A. (trypticase soya medium, pH 7.3)

Compound: CCn1cc(C(=O)O)c(=O)c2cnc(N3CCNCC3)nc21 [Example VIII, 2-Piperazino-5-oxo-8-ethyl-5,8-dihydro-pyrido(2,3-d)pyrimidine-6-carboxylicacid]
- MIC [1, 29]: 12.5 µg/mL (≈ 41.2 µM)
- MIC [1, 30]: 12.5 µg/mL (≈ 41.2 µM)
- MIC [2, 29]: 25 µg/mL (≈ 82.4 µM)
- MIC [2, 30]: 25 µg/mL (≈ 82.4 µM)
- MIC [3, 29]: 3.1 µg/mL (≈ 10.2 µM)
- MIC [3, 30]: 6.2 µg/mL (≈ 20.4 µM)
- MIC [4, 29]: 25 µg/mL (≈ 82.4 µM)
- MIC [4, 30]: 12.5 µg/mL (≈ 41.2 µM)
- MIC [5, 29]: 25 µg/mL (≈ 82.4 µM)
- MIC ([5]; T.S.A. (trypticase soya medium, pH 7.3), read-out: minimum inhibitory concentration (M.I.C.)): > 100 µg/mL
- MIC [6, 29]: 0.8 µg/mL (≈ 2.64 µM)
- MIC [6, 30]: 0.8 µg/mL (≈ 2.64 µM)
- MIC ([7]; pH 6.8, read-out: minimum inhibitory concentration (M.I.C.)): 6.2 µg/mL (≈ 20.4 µM)
- MIC ([7]; pH 7.3, read-out: minimum inhibitory concentration (M.I.C.)): 1.6 µg/mL (≈ 5.27 µM)
- MIC [8, 29]: 0.8 µg/mL (≈ 2.64 µM)
- MIC [8, 30]: 0.8 µg/mL (≈ 2.64 µM)
- MIC [9, 29]: 0.8 µg/mL (≈ 2.64 µM)
- MIC [9, 30]: 0.8 µg/mL (≈ 2.64 µM)
- MIC [10]: 1.64 µg/mL (≈ 5.41 µM)
- MIC [11]: 2.06 µg/mL (≈ 6.79 µM)
- MIC [12]: 0.56 µg/mL (≈ 1.85 µM)
- activity against Gram-negative microorganisms ([13]; in vitro): particularly active against Gram-negative microorganisms
- activity compared with nalidixic acid and the acid of Example III ([13]; majority of the Gram negative microorganisms, Table III): more active on the majority of the Gram negative microorganisms than the 2 other substances
- deaths [14]: no deaths were observed
- toxic signs [15]: without showing any toxic signs
- toxicity [16]: very low toxicity
- MIC [17]: 6.22 µg/mL (≈ 20.5 µM)
- MIC [18]: 6.22 µg/mL (≈ 20.5 µM)
- MIC [19]: 12.5 µg/mL (≈ 41.1 µM)
- MIC [20]: 13.7 µg/mL (≈ 45.3 µM)
- MIC [21]: 100 µg/mL (≈ 330 µM)
- MIC [22]: 8.1 µg/mL (≈ 26.7 µM)
- MIC [23]: 13.7 µg/mL (≈ 45.3 µM)
- MIC [24]: 2.04 µg/mL (≈ 6.73 µM)
- MIC [25]: 1.2 µg/mL (≈ 3.96 µM)
- MIC [26]: 27.5 µg/mL (≈ 90.7 µM)
- MIC [27]: 16.2 µg/mL (≈ 53.5 µM)
- MIC [28]: 1.58 µg/mL (≈ 5.21 µM)
